The compounds below were run on MKN-45 (Human Stomach Cancer Cells) (assay: Cell-growth suppressive effect against MKN-45 cells (WST-8 method)). Conditions: 72 h, 3 days incubation with medicament, read-out: 50% Growth Inhibiting Activity (IC50, μM) MKN-45 Cells.
Type: cell-based
Method: (§1) Method for Judging the Pharmaceutical Effect using Cells
(§2) Fetal calf serum (FCS) was purchased from Molgate and a DMEM medium was purchased from Asahi Techno Glass.
(§3) MKN-45, human stomach cancer cell, was purchased from the Immune Biology Laboratory. HCT 116, human colorectal cancer cell, was purchased from the American Type Culture Collection (ATCC).
(§4) Cells were suspended in a DMEM medium to which 10% of FCS were added, and a cell suspension was dispensed to a 96-well plastic plate to an extent of 1000 cells/50 microliters per well. Incubation was carried out at 37° C. for one night in 5% CO2-95% air. Each medicament was subjected to a gradient dilution using dimethyl sulfoxide or an appropriate solvent and each 50 microliters were dispensed to a microplate to which cells were sowed previously. Incubation was carried out for 3 days more at 37° C. in 5% CO2-95% air.
For `O=C1c2c(c3c4ccc(O)cc4n([C@@H]4O[C@H](CO)[C@@H](O)[C@H](O)[C@H]4O)c3c3[nH]c4cc(O)ccc4c23)C(=O)N1NCc1ccc[nH]1` [Example 12, 6-N-(2-1H-pyrrolylmethyl)amino-12,13-dihydro-2,10-dihydroxy-12-β-D-glucopyranosyl-5H-indolo[2,3-a]pyrrolo[3,4-c]carbazole-5,7(6H)-dione], the IC50 was 0.002 µM.
With `O=C1c2c(c3c4ccc(O)cc4n([C@@H]4O[C@H](CO)[C@@H](O)[C@H](O)[C@H]4O)c3c3[nH]c4cc(O)ccc4c23)C(=O)N1NCc1ccnc2ccccc12` [Example 6, 6-N-(4-quinolinylmethylamino)-12,13-dihydro-2,10-dihydroxy-12-β-D-glucopyranosyl-5H-indolo[2,3-a]pyrrolo[3,4-c]carbazole-5,7(6H)-dione] the IC50 was 0.0014 µM.
`O=C1c2c(c3c4ccc(O)cc4n([C@@H]4O[C@H](CO)[C@@H](O)[C@H](O)[C@H]4O)c3c3[nH]c4cc(O)ccc4c23)C(=O)N1NCc1cnccn1` [Example 5, 6-N-pyrazinylmethylamino-12,13-dihydro-2,10-dihydroxy-12-β-D-glucopyranosyl-5H-indolo-[2,3-a]pyrrolo[3,4-c]carbazole-5,7(6H)-dione] showed an IC50 of 0.0028 µM.
With `O=C1c2c(c3c4ccc(O)cc4n([C@@H]4O[C@H](CO)[C@@H](O)[C@H](O)[C@H]4O)c3c3[nH]c4cc(O)ccc4c23)C(=O)N1NCc1cc([N+](=O)[O-])c[nH]1` [Example 10, 6-N-(4-nitro-2-1H-pyrrolylmethyl)amino-12,13-dihydro-2,10-dihydroxy-12-β-D-glucopyranosyl-5H-indolo[2,3-a]pyrrolo[3,4-c]carbazole-5,7(6H)-dione] the IC50 was 0.004 µM.
With `O=C1c2c(c3c4ccc(O)cc4n([C@@H]4O[C@H](CO)[C@@H](O)[C@H](O)[C@H]4O)c3c3[nH]c4cc(O)ccc4c23)C(=O)N1NCc1cc(CO)sc1CO` [Example 4, 6-N-(2,5-dihydroxymethyl-3-thienylmethyl)amino-12,13-dihydro-2,10-dihydroxy-12-β-D-glucopyranosyl-5H-indolo[2,3-a]pyrrolo[3,4-c]carbazole-5,7(6H)-dione] the IC50 was 0.0012 µM.

These compounds were tested on HCT-116 (Human Colorectal Cancer Cells) (assay: Cell-growth suppressive effect against HCT-116 cells (WST-8 method)). Conditions: 72 h, 3 days incubation with medicament, read-out: 50% Growth Inhibiting Activity (IC50, μM) HCT-116 Cells.
Type: cell-based
Method: as §1, §2, §3, §4
In the case of `COC(=O)c1cccc(CNN2C(=O)c3c(c4c5ccc(O)cc5n([C@@H]5O[C@H](CO)[C@@H](O)[C@H](O)[C@H]5O)c4c4[nH]c5cc(O)ccc5c34)C2=O)n1` [Example 16, 6-N-(2-methoxycarbonyl-6-pyridylmethyl)amino-12,13-dihydro-2,10-dihydroxy-12-β-D-glucopyranosyl-5H-indolo[2,3-a]pyrrolo[3,4-c]carbazole-5,7(6H)-dione], the IC50 was 0.0049 µM.
`O=C1c2c(c3c4ccc(O)cc4n([C@@H]4O[C@H](CO)[C@@H](O)[C@H](O)[C@H]4O)c3c3[nH]c4cc(O)ccc4c23)C(=O)N1OCc1ccncc1CO` [Example 30, 6-N-(3-hydroxymethyl-4-pyridylmethoxy)-12,13-dihydro-2,10-dihydroxy-12-β-D-glucopyranosyl-5H-indolo[2,3-a]pyrrolo[3,4-c]carbazole-5,7(6H)-dione] was tested, and the IC50 was 0.00076 µM.
`O=C1c2c(c3c4ccc(O)cc4n([C@@H]4O[C@H](CO)[C@@H](O)[C@H](O)[C@H]4O)c3c3[nH]c4cc(O)ccc4c23)C(=O)N1NCc1cc[nH]n1` [Example 14, 6-N-(3-1H-pyrazolylmethyl)amino-12,13-dihydro-2,10-dihydroxy-12-β-D-glucopyranosyl-5H-indolo[2,3-a]pyrrolo[3,4-c]carbazole-5,7(6H)-dione] was tested, and the IC50 was 0.0012 µM.
With `O=C1c2c(c3c4ccc(O)cc4n([C@@H]4O[C@H](CO)[C@@H](O)[C@H](O)[C@H]4O)c3c3[nH]c4cc(O)ccc4c23)C(=O)N1CCc1ccncc1` [Example 39, 6-N-(2-(4-pyridyl)ethyl)-12,13-dihydro-2,10-dihydroxy-12-β-D-glucopyranosyl-5H-indolo-[2,3-a]pyrrolo[3,4-c]carbazole-5,7(6H)-dione] the IC50 was 0.005 µM.
`O=C1c2c(c3c4ccc(O)cc4n([C@@H]4O[C@H](CO)[C@@H](O)[C@H](O)[C@H]4O)c3c3[nH]c4cc(O)ccc4c23)C(=O)N1OCc1cccc(CO)n1` [Example 19, 6-N-(6-hydroxymethyl-2-pyridylmethoxy)-12,13-dihydro-2,10-dihydroxy-12-β-D-glucopyranosyl-5H-indolo[2,3-a]pyrrolo[3,4-c]carbazole-5,7(6H)-dione] was tested, and the IC50 was 0.0037 µM.
Compound `O=C1c2c(c3c4ccc(O)cc4n([C@@H]4O[C@H](CO)[C@@H](O)[C@H](O)[C@H]4O)c3c3[nH]c4cc(O)ccc4c23)C(=O)N1NCc1c[nH]cn1` [Example 15, 6-N-(4-1H-imidazolylmethyl)amino-12,13-dihydro-2,10-dihydroxy-12-β-D-glucopyranosyl-5H-indolo[2,3-a]pyrrolo[3,4-c]carbazole-5,7(6H)-dione] has an IC50 of 0.0016 µM.
For `O=C1c2c(c3c4ccc(O)cc4n([C@@H]4O[C@H](CO)[C@@H](O)[C@H](O)[C@H]4O)c3c3[nH]c4cc(O)ccc4c23)C(=O)N1OCc1ccncc1` [Example 18, 6-N-(4-pyridylmethoxy)-12,13-dihydro-2,10-dihydroxy-12-β-D-glucopyranosyl-5H-indolo-[2,3-a]pyrrolo[3,4-c]carbazole-5,7(6H)-dione], the IC50 was 0.0023 µM.

Source: patent publication US20070042975A1, “Novel indolopyrrolocarbazole derivative with antitumor activity” (priority 2003, published 2007)
